Assay results reported in US6498156B2, “Diphenylazetidinone derivatives, process for their preparation, medicaments comprising these compounds and their use” (Aventis Pharma Deutschland GmbH, priority 2000, dated 2002).

Assays:
[1] = Bioabsorption in the Caco cell model; assay type: in vitro ADME; conditions: human, Caco-2; Caco cell model; read-out: Apparent partition coefficient Papp (according to Lit. Hilgers)
Description: (§1) The bioabsorption of the compounds of the formula I was examined using the Caco cell model (A. R. Hilgers et al., Caco-2 cell monolayers as a model for drug transport across the intestinal mucosa, Pharm. Res. 1990, 7, 902).
(§2) From the measured data, it can be seen that the bioabsorption of the compounds of the formula I according to the invention is considerably lower than that of compounds described in the prior art (reference structure): […]

Caco-2 cell monolayers = experiment: Bioabsorption in the Caco cell model; assay type: in vitro ADME; conditions: estimated from Caco cell model data
Description: as §1, §2

[2] = test system: Cholesterol absorption (uptake of 14C-cholesterol by the liver); experiment: Cholesterol absorption test: uptake of 14C-cholesterol by the liver after peroral test meal; assay type: in vivo, NMRI mice; conditions: dose at which the uptake of 14C-cholesterol by the liver is halved (50%) vs control group, mouse
Description: Effect on Cholesterol Absorption +^3H-taurocholic Acid Excretion Using Fecal Excrement of Mice, Rats or Hamsters
NMRI mice, Wistar rats, or Golden Syrian hamsters (in groups of n=4-6) are kept in metabolic cages, where they are fed with a standard diet (Altromin, Lage (Lippe)). The afternoon prior to the administration of the radioactive tracers (^14C-cholesterol), the feed is removed and the animals are adapted to grates.
Additionally, the animals are labeled s.c. with ^3H-TCA (taurocholic acid) (for example 1 μCi/mouse up to 5 μCi/rat) 24 hours prior to the peroral administration of the test meal (^14C-cholesterol in Intralipid® 20, Pharmacia-Upjohn).
Cholesterol absorption test: 0.25 ml/mouse Intralipid ® 20 (Pharmacia-Upjohn) ((Spiked with 0.25 μCi of ^14C-cholesterol in 0.1 mg of cholesterol) are administered perorally by gavage.
Test substances were prepared separately in 0.5% methylcellulose (Sigma)/5% Solutol (BASF, Ludwigshafen) or a suitable vehicle.
The administration volume of the test substance is 0.5 ml/mouse. The test substance is administered immediately prior to the test meal (Intralipid labeled with ^14C-cholesterol) (cholesterol absorption test).
The feces are collected over a period of 24 h: fecal elimination of ^14C-cholesterol and ^3H-taurocholic acid (TCA) is determined after 24 hours.
The livers are removed and homogenized, and aliquots are incinerated in an oximate (Model 307, Packard) to determine the amount of ^14C-cholesterol which had been taken up/absorbed.
The amount of ^14C-cholesterol taken up by the liver is based on the administered dose. The ED50 values are interpolated from a dose-effect curve as the dose at of which the uptake of ^14C-cholesterol by the liver is halved (50%), based on a control group.

With `CCCCC1(CC)CS(=O)(=O)c2ccc(N(C)C)cc2C(c2cccc(NC(=O)CCCCCCCCCCC(=O)NCc3cccc(C4C(CCC(O)c5ccc(F)cc5)C(=O)N4c4ccc(F)cc4)c3)c2)[C@H]1O.O=C(O)C(F)(F)F` (stereo in doubt) [Example XII, (3-Butyl-3-ethyl-5-{3-[11-(3-{1-(4-fluorophenyl)-3-[3-(4-fluorophenyl)-3-hydroxypropyl]-4-oxoazetidin-2-yl}benzylcarbamoyl)undecanoylamino]phenyl}-4-hydroxy-1,1-dioxo-2,3,4,5-tetrahydro-1H-benzo[b]thiepin-7-yl)dimethylammonium Trifluoro-acetate] the Papp [1] was 0.0367 nm/s and the Estimated human bioabsorption (Caco-2 cell monolayers) was <1%.
With `CCCCC1(CC)CS(=O)(=O)c2ccc(N(C)C)cc2C(c2cccc(NC(=O)CCCCC(=O)NCc3ccc(C4C(CCC(O)c5ccccc5)C(=O)N4c4ccc(F)cc4)cc3)c2)C1O` (stereo not drawn) [II, N-[3-(3-Butyl-7-dimethylamino-3-ethyl-4-hydroxy-1,1-dioxo-2,3,4,5-tetrahydro-1H-benzo[b]thiepin-5-yl)phenyl]-N′-4-[1-(4-fluorophenyl)-3-(3-hydroxy-3-phenylpropyl)-4-oxoazetidin-2-yl]benzyl-hexanediamide] the “ED50 (liver)” value [2] was 0.01 mg/mouse and the melting point was 150 °C.
For `CCCCC1(CC)CS(=O)(=O)c2ccc(N(C)C)cc2C(c2cccc(NC(=O)CCCCC(=O)NCc3ccc(C4C(CCC(O)c5ccc(F)cc5)C(=O)N4c4ccc(F)cc4)cc3)c2)C1O` (stereo not drawn) [III, N-[3-(3-Butyl-7-dimethylamino-3-ethyl-4-hydroxy-1,1-dioxo-2,3,4,5-tetrahydro-1H-benzo[b]thiepin-5-yl)phenyl]-N′-4-{1-(4-fluorophenyl)-3-[3-(4-fluorophenyl)-3-hydroxypropyl]-4-oxo-azetidin-2-yl}benzyl-hexanediamide], the “ED50 (liver)” value [2] was 0.03 mg/mouse.
Molecule `O=C1[C@H](CC[C@H](O)c2ccc(F)cc2)[C@@H](c2ccc(O)cc2)N1c1ccc(F)cc1` [Reference structure, Ezetimibe, reference compound] has a Papp [1] of 48.8 nm/s and an Estimated human bioabsorption (Caco-2 cell monolayers) of 100%.
For `CCCCC1(CC)CS(=O)(=O)c2ccc(N(C)C)cc2C(c2cccc(NC(=O)COCCOCCOCC(=O)NCc3ccc(C4C(CCC(O)c5ccccc5)C(=O)N4c4ccc(F)cc4)cc3)c2)C1O` (stereo not drawn) [VI, [2-(2-{[3-(3-Butyl-7-dimethylamino-3-ethyl-4-hydroxy-1,1-dioxo-2,3,4,5-tetrahydro-1H-benzo[b]thiepin-5-yl)-phenylcarbamoyl]methoxy}ethoxy)ethoxy]-[N-{4-[1-(4-fluorophenyl)-3-(3-hydroxy-3-phenylpropyl)-4-oxoazetidin-2-yl]benzyl}]acetamide], the melting point was 120 °C.
In the case of `CCCCC1(CC)CS(=O)(=O)c2ccc(N(C)C)cc2C(c2cccc(NC(=O)COCCOCC(=O)NCc3cccc(C4C(CCC(O)c5ccc(F)cc5)C(=O)N4c4ccc(F)cc4)c3)c2)C1O.O=C(O)C(F)(F)F` (stereo not drawn) [VIII, (3-Butyl-3-ethyl-5-[3-(2-{2-[(3-{1-(4-fluorophenyl)-3-[3-(4-fluorophenyl)-3-hydroxypropyl]-4-oxoazetidin-2-yl}benzylcarbamoyl)methoxy]ethoxy}acetylamino)phenyl]-4-hydroxy-1,1-dioxo-2,3,4,5-tetrahydro-1H-benzo[b]thiepin-7-yl)dimethylammonium Trifluoroacetate], the “ED50 (liver)” value [2] is reported as 0.003 mg/mouse.
For `CCCCC1(CC)CS(=O)(=O)c2ccc(N(C)C)cc2C(c2cccc(NC(=O)CCCCCCCNCc3ccc(C4C(CCC(O)c5ccc(F)cc5)C(=O)N4c4ccc(F)cc4)cc3)c2)C1O.O=C(O)C(F)(F)F` (stereo not drawn) [XXV], the “ED50 (liver)” value [2] was 0.01 mg/mouse.
In the case of `CCCCC1(CC)CS(=O)(=O)c2ccc(N(C)C)cc2C(c2cccc(NC(=O)COCCOCC(=O)NCc3ccc(N4C(=O)C(CCC(O)c5ccc(F)cc5)C4c4ccc(OC)cc4)cc3)c2)C1O` (stereo not drawn) [XXX, 2-(2-{[3-(3-Butyl-7-dimethylamino-3-ethyl-4-hydroxy-1,1-dioxo-2,3,4,5-tetrahydro-1H-benzo[b]thiepin-5-yl)phenylcarbamoyl]methoxy}ethoxy)-N-{4-[3-[3-(4-fluorophenyl)-3-hydroxypropyl]-2-(4-methoxyphenyl)-4-oxoazetidin-1-yl]benzyl}acetamide], the melting point is reported as 116 to 125 °C.
In the case of `CCCCC1(CC)CS(=O)(=O)c2ccc(N(C)C)cc2C(c2cccc(NC(=O)COCCOCCOCC(=O)NCc3ccc(N4C(=O)C(CCC(O)c5ccc(F)cc5)C4c4ccc(OC)cc4)cc3)c2)C1O` (stereo not drawn) [XXXI, N-[3-(3-Butyl-7-dimethylamino-3-ethyl-4-hydroxy-1,1-dioxo-2,3,4,5-tetrahydro-1H-benzo[b]thiepin-5-yl)phenyl]-2-{2-[2-({4-[3-[3-(4-fluorophenyl)-3-hydroxypropyl]-2-(4-methoxyphenyl)-4-oxoazetidin-1-yl]benzylcarbamoyl}methoxy)ethoxy]ethoxy}acetamide], the “ED50 (liver)” value [2] is reported as 0.1 mg/mouse.
